Reference: ChEMBL document CHEMBL1142015, “New derivatives of 1alpha,25-dihydroxy-19-norvitamin D3 with two substituents at C-2: synthesis and biological activity” (Bioorg Med Chem Lett, 2005)
Values joined by “and” are separate entries in the source; they are usually repeats but may differ in a detail not shown here. Equal values may be shown once.

Columns and labels:
[1] = target: T1, Vitamin D3 receptor (Bos taurus) (UniProt Q28037); test: Percent binding affinity for bovine vitamin D receptor compared to 2-Me-1-alpha,2,5-dihydroxy-19-norvitamin D3
T1 sequence (whole entry): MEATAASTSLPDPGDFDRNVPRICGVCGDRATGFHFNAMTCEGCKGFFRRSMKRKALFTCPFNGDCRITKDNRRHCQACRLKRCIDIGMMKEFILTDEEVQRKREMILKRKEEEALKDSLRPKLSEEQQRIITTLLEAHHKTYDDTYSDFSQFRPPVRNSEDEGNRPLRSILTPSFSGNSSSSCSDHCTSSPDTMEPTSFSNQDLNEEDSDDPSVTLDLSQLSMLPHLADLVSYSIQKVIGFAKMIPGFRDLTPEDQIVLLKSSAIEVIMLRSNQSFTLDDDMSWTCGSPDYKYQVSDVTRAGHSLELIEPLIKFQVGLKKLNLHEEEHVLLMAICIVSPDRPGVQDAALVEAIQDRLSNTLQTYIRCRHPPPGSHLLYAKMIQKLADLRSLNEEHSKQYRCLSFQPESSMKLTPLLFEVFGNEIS

[2] = target: T1, Vitamin D3 receptor (Bos taurus); test: Percent binding affinity for bovine vitamin D receptor compared to 1a
[3] = target: T2, Vitamin D3 receptor (Homo sapiens) (UniProt P11473); test: Activation of vitamin D receptor in COS-7 cell transcription assay; assay type: functional, cell-based
T2 sequence (whole entry): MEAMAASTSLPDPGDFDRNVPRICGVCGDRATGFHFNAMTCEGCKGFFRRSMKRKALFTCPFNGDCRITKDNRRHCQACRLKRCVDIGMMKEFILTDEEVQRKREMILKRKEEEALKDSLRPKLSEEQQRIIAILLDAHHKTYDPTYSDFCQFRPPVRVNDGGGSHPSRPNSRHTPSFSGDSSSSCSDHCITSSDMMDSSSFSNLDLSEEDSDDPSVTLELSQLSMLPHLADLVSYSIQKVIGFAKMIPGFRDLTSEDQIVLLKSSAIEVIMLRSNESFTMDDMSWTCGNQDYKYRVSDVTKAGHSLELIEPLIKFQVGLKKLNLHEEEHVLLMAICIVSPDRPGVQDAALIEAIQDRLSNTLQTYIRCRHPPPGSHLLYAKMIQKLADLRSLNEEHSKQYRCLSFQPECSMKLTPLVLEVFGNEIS

[4] = target: T1, Vitamin D3 receptor (Bos taurus); test: Percent binding affinity for bovine vitamin D receptor compared to 2-Et-1-alpha,2,5-dihydroxy-19-norvitamin D3
[5] = target: T2, Vitamin D3 receptor (Homo sapiens); test: Percent activation of vitamin D receptor in COS-7 cell transcription assay at 10e-8 or 10e-9 M; assay type: functional, cell-based

| VDR affinity [2] | SMILES | further results |
| --- | --- | --- |
| – | C[C@H](CCCC(C)(C)O)[C@H]1CC[C@H]2/C(=C\C=C3C[C@@H](O)C(C)(O)[C@H](O)C3)CCC[C@]12C (stereo partly specified) | VDR affinity [1]: 21% and 2.6% |
| 2% and 0.02% | C[C@H](CCCC(C)(C)O)[C@H]1CC[C@H]2/C(=C\C=C3C[C@@H](O)C(O)(CF)[C@H](O)C3)CCC[C@]12C (stereo partly specified) | – |
| 100% | C=C1/C(=C\C=C2/CCC[C@]3(C)[C@@H]([C@H](C)CCCC(C)(C)O)CC[C@@H]23)C[C@@H](O)C[C@@H]1O | – |
| 4% and 3% | C[C@H](CCCC(C)(C)O)[C@H]1CC[C@H]2/C(=C\C=C3C[C@@H](O)C4(CO4)[C@H](O)C3)CCC[C@]12C (stereo partly specified) | ED50 [3]: 5 nM and 4 nM |
| 100% | C[C@@H](CCCC(C)(C)O)[C@H]1CC[C@H]2/C(=C\C=C3C[C@@H](O)C(C)(O)[C@H](O)C3)CCC[C@]12C (stereo partly specified) | ED50 [3]: 3200 nM; VDR affinity [1]: 23% and 18% |
| 60% | C[C@@H](CCCC(C)(C)O)[C@H]1CC[C@H]2/C(=C\C=C3C[C@@H](O)C(O)(CF)[C@H](O)C3)CCC[C@]12C (stereo partly specified) | – |
| 5% | CCC1(O)[C@H](O)CC(=C/C=C2/CCC[C@]3(C)[C@@H]([C@@H](C)CCCC(C)(C)O)CC[C@@H]23)C[C@H]1O (stereo partly specified) | VDR affinity [4]: 200%; Transcriptional activity [5]: 92% |
| 4% and 0.1% | COCC1(O)[C@H](O)CC(=C/C=C2/CCC[C@]3(C)[C@@H]([C@H](C)CCCC(C)(C)O)CC[C@@H]23)C[C@H]1O (stereo partly specified) | – |
| – | C[C@@H](CCCC(C)(C)O)[C@H]1CC[C@H]2/C(=C\C=C3C[C@@H](O)C4(CO4)[C@H](O)C3)CCC[C@]12C (stereo partly specified) | ED50 [3]: 89 nM and 18 nM |
| 20% and 10% | COCC1(O)[C@H](O)CC(=C/C=C2/CCC[C@]3(C)[C@@H]([C@@H](C)CCCC(C)(C)O)CC[C@@H]23)C[C@H]1O (stereo partly specified) | – |
| 2% and 0.05% | CCC1(O)[C@H](O)CC(=C/C=C2/CCC[C@]3(C)[C@@H]([C@H](C)CCCC(C)(C)O)CC[C@@H]23)C[C@H]1O (stereo partly specified) | – |
